Assay results taken from ChEMBL document CHEMBL3886773, “Immune system modulators” (2016).

Target: T1, Toll-like receptor 9 (Homo sapiens, UniProt Q9NR96)
T1 sequence (Q9NR96 whole entry): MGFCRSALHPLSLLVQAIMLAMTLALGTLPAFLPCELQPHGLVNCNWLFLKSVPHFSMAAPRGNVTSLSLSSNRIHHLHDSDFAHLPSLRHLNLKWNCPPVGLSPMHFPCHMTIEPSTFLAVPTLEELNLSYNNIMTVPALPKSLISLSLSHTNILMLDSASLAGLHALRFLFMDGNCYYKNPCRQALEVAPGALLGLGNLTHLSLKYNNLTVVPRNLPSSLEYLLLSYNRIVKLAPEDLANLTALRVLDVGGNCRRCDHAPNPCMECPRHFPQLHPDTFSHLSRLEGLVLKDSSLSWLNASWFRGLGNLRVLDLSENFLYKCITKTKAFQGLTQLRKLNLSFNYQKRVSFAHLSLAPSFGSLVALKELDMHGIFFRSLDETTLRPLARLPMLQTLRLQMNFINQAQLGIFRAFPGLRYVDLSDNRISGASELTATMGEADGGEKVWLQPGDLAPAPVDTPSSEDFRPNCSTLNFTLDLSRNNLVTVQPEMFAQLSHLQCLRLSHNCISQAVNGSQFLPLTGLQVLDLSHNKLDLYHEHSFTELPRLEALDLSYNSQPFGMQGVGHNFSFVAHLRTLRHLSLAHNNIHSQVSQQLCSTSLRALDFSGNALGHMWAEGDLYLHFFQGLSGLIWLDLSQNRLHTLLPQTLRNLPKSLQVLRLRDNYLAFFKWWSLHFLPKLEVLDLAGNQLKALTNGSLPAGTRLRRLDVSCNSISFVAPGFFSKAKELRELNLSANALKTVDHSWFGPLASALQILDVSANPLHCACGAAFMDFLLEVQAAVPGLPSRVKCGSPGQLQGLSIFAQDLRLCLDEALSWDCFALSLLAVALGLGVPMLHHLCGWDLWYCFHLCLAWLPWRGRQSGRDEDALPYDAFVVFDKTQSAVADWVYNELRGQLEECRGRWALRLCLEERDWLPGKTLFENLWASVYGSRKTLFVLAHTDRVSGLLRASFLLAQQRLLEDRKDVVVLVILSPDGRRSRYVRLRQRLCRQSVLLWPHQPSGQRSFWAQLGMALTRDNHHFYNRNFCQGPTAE
Experiment: Antagonism Assay: Day 1: A cell suspension of HEK-Blue™-hTLR9 cells at ~450,000 cells per ml in test medium which contained 5% (v/v) heat inactivated FBS was prepared. 180 μl of cell suspension (Ë¿80,000 cells) was added per well of a flat-bottom 96-well plate and place in an incubator at 37° C. for overnight. Day 2: Test compounds were serially diluted in test medium, generally starting at 10 μM, and diluting by 3 fold in a 96 well master plate. 20 μl of diluted test compound was transferred using a 12 channel multi-channel pipet to the cell plate and incubated at 37° C. for 1 hour. Then 20 μl of an hTLR9 agonist (such as ODN 2006, 1 μM) was added to each well and the plate incubated at 37° C. overnight. Day 3: Invivogen's QUANTI-Blue™ was prepared following the manufacturer's instructions. […] of resuspended QUANTI-Blue™ was added per well of a flat bottom 96-well plate. 20 μl per well of induced HEK-Blue™-hTLR9 cells supernatant was then added to the plate and the plate was incubated at 37° C. for 1-3 h. SEAP levels were determined using a spectrophotometer at 620 nm.

IC50 | Compound
2180 nM | CN1CCN(c2cnc3c(NCCc4ccccn4)nc(-c4ccccc4)nc3n2)CC1
2490 nM | Cc1cnc(CNc2nc(-c3ccccc3)nc3nc(N4CCN(C)CC4)cnc23)cn1
2950 nM | CN1CCN(c2cnc3c(NCCCn4cncn4)nc(-c4ccccc4)nc3n2)CC1
62 nM | CN1CCN(c2nc3nc(-c4ccccc4)nc(NCCN4CCOCC4)c3nc2Cl)CC1
113 nM | CN1CCN(CCNc2nc(-c3ccccc3)nc3nc(N4CCN(C)CC4)cnc23)CC1
198 nM | CN1CCN(c2cnc3c(NCCCNc4nc(N)nc(N)n4)nc(-c4ccccc4)nc3n2)CC1
124 nM | CN1CCN(CCNc2nc(-c3ccccc3)nc3c2nc(-c2ccccc2)c(=O)n3CCN2CCN(C)CC2)CC1
991 nM | CN1CCN(c2cnc3c(NCCc4ccncc4)nc(-c4ccccc4)nc3n2)CC1

The next lines start with the molecule.

Compound | IC50
CN1CCN(c2cnc3c(NCCSC(=N)N)nc(-c4ccccc4)nc3n2)CC1 | > 10000 nM
N#Cc1ccc(-c2nc3c(NCCN4CCOCC4)nc(-c4ccccc4)nc3n(CCN3CCOCC3)c2=O)cc1 | 487 nM
CN1CCN(c2nc3nc(-c4ccc(C(C)(C)C)cc4)nc(NCCN4CCOCC4)c3nc2NCCN2CCOCC2)CC1 | 273 nM
Cc1nc2c(NCCN3CCOCC3)nc(-c3ccccc3)nc2n(CCN2CCOCC2)c1=O | 2480 nM
O=c1c(C(F)(F)F)nc2c(NCCN3CCOCC3)nc(-c3ccccc3)nc2n1CCN1CCOCC1 | 3820 nM
CN1CCN(c2nc3nc(-c4ccccc4)nc(NCCN4CCOCC4)c3nc2NCCN2CCOCC2)CC1 | 317 nM
O=c1c(-c2cc(F)cc(F)c2)nc2c(NCCN3CCOCC3)nc(-c3ccccc3)nc2n1CCN1CCOCC1 | 901 nM
O=c1c(-c2ccccc2)nc2c(NCCN3CCOCC3)nc(-c3ccccc3)nc2n1CCN1CCOCC1 | 137 nM
CN1CCN(c2ccc(-c3nc(NCCN4CCOCC4)c4nccnc4n3)cc2)CC1 | 285 nM
CN(C)CCN(C)c1nc(-c2ccccc2)nc2nc(N3CCN(C)CC3)cnc12 | 112 nM
